In patent US11000033B2, “Ketone or oxime compound, and herbicide” (NISSAN CHEMICAL CORPORATION, priority 2014, dated 2021):

Key:
Assay type in all cases: in vivo
transplanted rice plant = experiment: Test Example 1: effect on crop, application before weed generation in submerged conditions (symbol a); conditions: application herbicide amount 320 g/ha
Method in brief: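 Rice at 2.5 leaf stage transplanted into submerged soil (4 cm depth) sown with three weed species; herbicide applied before weed emergence.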

Lolium multiflorum Lam. = experiment: Test Example 4: herbicidal effect by soil treatment (symbol K); conditions: application herbicide amount 320 g/ha
Method in brief: (§1)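 Seeds were sown in sterilized diluvial soil, covered with about 1.5 cm of soil, and the soil surface was sprayed with a water-diluted emulsion of the compound at a predetermined rate. Plants grew in a greenhouse at 25° C. to 30° C.; effects were scored visually 3 weeks after application.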

Cyperus difformis = experiment: Test Example 3: herbicidal effect by foliage application, Wagner pot (symbol E); conditions: application herbicide amount 320 g/ha
Method in brief: (§2)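 Foliar spray of a water-diluted emulsion at a predetermined herbicide amount, applied to 14-day-old plants. Seedlings were raised in flooded alluvial soil (0.1–0.5 cm water) at 25–30 °C in a greenhouse. Injury was rated after 3 weeks against fixed criteria.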

beet = experiment: Test Example 4: effect on crop by soil treatment (symbol f); conditions: application herbicide amount 320 g/ha
Method in brief: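 Soil-treatment setup: crop and weed seeds were spot-sown into sterilized diluvial soil, then buried beneath approximately 1.5 cm of it, and the boxes were housed in a 25–30° C. greenhouse.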

Galium spurium = experiment: Test Example 5: herbicidal effect by foliage application, plastic box (symbol Q); conditions: 320 g/ha, 3 weeks after application
Method in brief: (§3)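 Herbicide, formulated as an emulsion and diluted in water, is sprayed onto the aerial parts of 14-day seedlings. These were grown at 25° C. to 30° C. in sterilized diluvial soil; effects are graded after 3 weeks.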

Amaranthus retroflexus = experiment: Test Example 4: herbicidal effect by soil treatment (symbol N); conditions: application herbicide amount 320 g/ha
Method in brief: as §1

[1] = system: Echinochloa crus-galli var. crus-galli; experiment: Test Example 4: herbicidal effect by soil treatment (symbol H); conditions: application herbicide amount 320 g/ha
Method in brief: as §1

wheat = experiment: Test Example 5: effect on crop by foliage application, plastic box (symbol e); conditions: 320 g/ha, 3 weeks after application
Method in brief: (§4)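 Greenhouse test at 25° C. to 30° C. Seeds of crops and weeds were spot-sown in boxes of sterilized diluvial soil under roughly 1.5 cm soil cover, then grown for foliage treatment.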

Veronica persica = experiment: Test Example 5: herbicidal effect by foliage application, plastic box (symbol R); conditions: 320 g/ha, 3 weeks after application
Method in brief: as §3

corn = experiment: Test Example 4: effect on crop by soil treatment (symbol c); conditions: application herbicide amount 320 g/ha
Method in brief: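 Plants are raised in a greenhouse (25° C. to 30° C.) from spot-sown seed, which sits under about 1.5 cm of sterilized diluvial soil in a box shared with weed species.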

Leptochloa chinensis = experiment: Test Example 3: herbicidal effect by foliage application, Wagner pot (symbol D); conditions: application herbicide amount 320 g/ha
Method in brief: as §2

Setaria viridis = experiment: Test Example 5: herbicidal effect by foliage application, plastic box (symbol G); conditions: 320 g/ha, 3 weeks after application
Method in brief: as §3

Scirpus juncoides = experiment: Test Example 1: herbicidal activity, application before weed generation in submerged conditions (symbol B); conditions: application herbicide amount 320 g/ha
Method in brief: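 In a flooded pot test with alluvial soil, the emulsion-formulated compound was diluted with water to a predetermined amount and applied to the floodwater immediately on the sowing day. Pots were held in a greenhouse at 25–30 °C for 3 weeks before each weed was rated.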

soybean = experiment: Test Example 5: effect on crop by foliage application, plastic box (symbol d); conditions: 320 g/ha, 3 weeks after application
Method in brief: as §4

| Compound | Effect grade on crop, a: transplanted rice plant (transplanted rice plant) | K (Lolium multiflorum Lam.) herbicidal effect grade (Lolium multiflorum Lam.) | herbicidal effect on E, grade 0-5 (Cyperus difformis) | f (beet) effect on crop grade (beet) | Q: Galium spurium, herbicidal effect grade (Galium spurium) | N (Amaranthus retroflexus) herbicidal effect grade (Amaranthus retroflexus) | H (Echinochloa crus-galli var. crus-galli) herbicidal effect grade [1] | e: wheat, effect on crop grade (wheat) | R: Veronica persica, herbicidal effect grade (Veronica persica) | c (corn) effect on crop grade (corn) | herbicidal effect on D (Leptochloa chinensis), grade 0-5 (Leptochloa chinensis) | G: Setaria viridis, herbicidal effect grade (Setaria viridis) | Herbicidal effect grade, B: Scirpus juncoides (Scirpus juncoides) | d: soybean, effect on crop grade (soybean) |
| --- | --- | --- | --- | --- | --- | --- | --- | --- | --- | --- | --- | --- | --- | --- |
| CON=C(C)CC1CC(OC(=O)C(C)Cl)=C(c2c(C)cc(C)cc2C)C1=O (stereo not shown) [1-042] | 5 (Herbicidal ratio of 90% or more (almost completely withered)) | 5 (Herbicidal ratio of 90% or more (almost completely withered)) | 5 (Herbicidal ratio of 90% or more (almost completely withered)) | 0 (Herbicidal ratio of 5% or lower (almost no effect)) | 0 (Herbicidal ratio of 5% or lower (almost no effect)) | 4 (Herbicidal ratio of 70% or higher and lower than 90%) | 5 (Herbicidal ratio of 90% or more (almost completely withered)) | 5 (Herbicidal ratio of 90% or more (almost completely withered)) | 1 (Herbicidal ratio of 5% or higher and lower than 20%) | 3 (Herbicidal ratio of 40% or higher and lower than 70%) | 5 (Herbicidal ratio of 90% or more (almost completely withered)) | 5 (Herbicidal ratio of 90% or more (almost completely withered)) | 5 (Herbicidal ratio of 90% or more (almost completely withered)) | 3 (Herbicidal ratio of 40% or higher and lower than 70%) |
| CC(CC1CC(O)=C(c2c(C)cc(C)cc2C)C1=O)=NOCC(C)O (stereo not shown) [1-027] | 4 (Herbicidal ratio of 70% or higher and lower than 90%) | 5 (Herbicidal ratio of 90% or more (almost completely withered)) | 5 (Herbicidal ratio of 90% or more (almost completely withered)) | 0 (Herbicidal ratio of 5% or lower (almost no effect)) | 3 (Herbicidal ratio of 40% or higher and lower than 70%) | 0 (Herbicidal ratio of 5% or lower (almost no effect)) | 5 (Herbicidal ratio of 90% or more (almost completely withered)) | 4 (Herbicidal ratio of 70% or higher and lower than 90%) | – | 4 (Herbicidal ratio of 70% or higher and lower than 90%) | 5 (Herbicidal ratio of 90% or more (almost completely withered)) | 5 (Herbicidal ratio of 90% or more (almost completely withered)) | 3 (Herbicidal ratio of 40% or higher and lower than 70%) | 3 (Herbicidal ratio of 40% or higher and lower than 70%) |
| CC(CC1CC(O)=C(c2c(C)cc(C)cc2C)C1=O)=NOCC(F)(F)F (stereo not shown) [1-028] | 5 (Herbicidal ratio of 90% or more (almost completely withered)) | 5 (Herbicidal ratio of 90% or more (almost completely withered)) | 5 (Herbicidal ratio of 90% or more (almost completely withered)) | 0 (Herbicidal ratio of 5% or lower (almost no effect)) | 3 (Herbicidal ratio of 40% or higher and lower than 70%) | 3 (Herbicidal ratio of 40% or higher and lower than 70%) | 5 (Herbicidal ratio of 90% or more (almost completely withered)) | 3 (Herbicidal ratio of 40% or higher and lower than 70%) | – | 0 (Herbicidal ratio of 5% or lower (almost no effect)) | 5 (Herbicidal ratio of 90% or more (almost completely withered)) | 5 (Herbicidal ratio of 90% or more (almost completely withered)) | 5 (Herbicidal ratio of 90% or more (almost completely withered)) | 2 (Herbicidal ratio of 20% or higher and lower than 40%) |
| CON=C(C)C(C)C1CC(O)=C(c2c(C)cc(C)cc2C)C1=O (stereo not shown) [1-032] | 5 (Herbicidal ratio of 90% or more (almost completely withered)) | 5 (Herbicidal ratio of 90% or more (almost completely withered)) | 5 (Herbicidal ratio of 90% or more (almost completely withered)) | 4 (Herbicidal ratio of 70% or higher and lower than 90%) | 4 (Herbicidal ratio of 70% or higher and lower than 90%) | 4 (Herbicidal ratio of 70% or higher and lower than 90%) | 5 (Herbicidal ratio of 90% or more (almost completely withered)) | 5 (Herbicidal ratio of 90% or more (almost completely withered)) | – | 4 (Herbicidal ratio of 70% or higher and lower than 90%) | 5 (Herbicidal ratio of 90% or more (almost completely withered)) | 5 (Herbicidal ratio of 90% or more (almost completely withered)) | 5 (Herbicidal ratio of 90% or more (almost completely withered)) | 4 (Herbicidal ratio of 70% or higher and lower than 90%) |
| CON=C(C)CC1CC(OCC#C[Si](C)(C)C)=C(c2c(C)cc(C)cc2C)C1=O (stereo not shown) [1-031] | 0 (Herbicidal ratio of 5% or lower (almost no effect)) | 0 (Herbicidal ratio of 5% or lower (almost no effect)) | 0 (Herbicidal ratio of 5% or lower (almost no effect)) | 0 (Herbicidal ratio of 5% or lower (almost no effect)) | 0 (Herbicidal ratio of 5% or lower (almost no effect)) | 0 (Herbicidal ratio of 5% or lower (almost no effect)) | 0 (Herbicidal ratio of 5% or lower (almost no effect)) | 0 (Herbicidal ratio of 5% or lower (almost no effect)) | – | 0 (Herbicidal ratio of 5% or lower (almost no effect)) | 4 (Herbicidal ratio of 70% or higher and lower than 90%) | 1 (Herbicidal ratio of 5% or higher and lower than 20%) | 4 (Herbicidal ratio of 70% or higher and lower than 90%) | 0 (Herbicidal ratio of 5% or lower (almost no effect)) |
| COCCOC1=C(c2c(C)cc(C)cc2C)C(=O)C(CC(C)=NOC)C1 (stereo not shown) [1-037] | 0 (Herbicidal ratio of 5% or lower (almost no effect)) | 0 (Herbicidal ratio of 5% or lower (almost no effect)) | 0 (Herbicidal ratio of 5% or lower (almost no effect)) | 0 (Herbicidal ratio of 5% or lower (almost no effect)) | 0 (Herbicidal ratio of 5% or lower (almost no effect)) | 0 (Herbicidal ratio of 5% or lower (almost no effect)) | 0 (Herbicidal ratio of 5% or lower (almost no effect)) | 0 (Herbicidal ratio of 5% or lower (almost no effect)) | – | 0 (Herbicidal ratio of 5% or lower (almost no effect)) | 0 (Herbicidal ratio of 5% or lower (almost no effect)) | 0 (Herbicidal ratio of 5% or lower (almost no effect)) | 0 (Herbicidal ratio of 5% or lower (almost no effect)) | 0 (Herbicidal ratio of 5% or lower (almost no effect)) |
